Molecules are shown by their SMILES.

T1 sequence (Q9GZT9 whole entry, species assumed): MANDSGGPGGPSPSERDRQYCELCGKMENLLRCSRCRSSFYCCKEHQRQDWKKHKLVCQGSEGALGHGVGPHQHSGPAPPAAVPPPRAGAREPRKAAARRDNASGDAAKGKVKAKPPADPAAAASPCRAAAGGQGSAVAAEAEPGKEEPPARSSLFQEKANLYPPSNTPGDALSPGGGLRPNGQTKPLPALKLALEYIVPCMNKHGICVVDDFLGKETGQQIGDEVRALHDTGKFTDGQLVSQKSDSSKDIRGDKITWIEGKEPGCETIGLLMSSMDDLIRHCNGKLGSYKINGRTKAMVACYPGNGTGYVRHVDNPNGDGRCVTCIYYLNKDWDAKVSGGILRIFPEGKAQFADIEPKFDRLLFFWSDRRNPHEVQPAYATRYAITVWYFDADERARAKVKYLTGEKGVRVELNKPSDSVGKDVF

One test addresses T1, HIF-PH2 (EGLN1) (Homo sapiens, UniProt Q9GZT9).
T1 construct: made in house; host or cells: insect Hi5 cells
The experiment in a line: HIF-PH assay (14CO2 capture, peptide-dependent turnover). The format is biochemical. The conditions noted are these: Concentration 22 μM. From the text:
Ketoglutaric acid α-[1-^14C]-sodium salt, alpha-ketoglutaric acid sodium salt, and HPLC purified peptide may be obtained from commercial sources, e.g., Perkin-Elmer (Wellesley Mass.), Sigma-Aldrich, and SynPep Corp. (Dublin Calif.), respectively. Peptides for use in the assay may be fragments of HIFα as described above or as disclosed in International Publication WO 2005/118836, incorporated by reference herein. HIF-PH, e.g., HIF-PH2 (EGLN1), can be expressed in, e.g., insect Hi5 cells, and partially purified, e.g., through a SP ion exchange chromatography column. Enzyme activity is determined by capturing ^14CO2 using an assay described by Kivirikko and Myllyla (1982, Methods Enzymol. 82:245-304). Assay reactions contain 50 mM HEPES (pH 7.4), 100 μM α-ketoglutaric acid sodium salt, 0.30 μCi/mL ketoglutaric acid α-[1-^14C]-sodium salt, 40 μM FeSO4, 1 mM ascorbate, 1541.8 units/mL Catalase, with or without 50 μM peptide substrate and various concentrations of compound of the invention. Reactions are initiated by addition of HIF-PH enzyme.
The peptide-dependent percent turnover is calculated by subtracting percent turnover in the absence of peptide from percent turnover in the presence of substrate peptide. Percent inhibition and IC50 are calculated using peptide-dependent percent turnover at given inhibitor concentrations. Calculation of IC50 values for each inhibitor is conducted using GraFit software (Erithacus Software Ltd., Surrey UK).
Representative compounds of the invention were analyzed using the HIF-PH assay described above. Table 1 presents enzyme inhibition data for exemplary compounds against HIF-PH2, a representative HIF prolyl hydroxylase. By inhibiting HIF prolyl hydroxylase, compounds of the invention stabilize HIFα, which then combines with HIFβ to form an active transcription factor that increases expression of various genes involved in numerous beneficial cellular processes.
As to `O=C(O)CNC(=O)c1c(O)c2c(Cl)c(Cl)c(Cl)n2n(Cc2ccccc2)c1=O` [Example 2, [(1-Benzyl-5,6,7-trichloro-4-hydroxy-2-oxo-1,2-dihydro-pyrrolo[1,2-b]pyridazine-3-carbonyl)-amino]-acetic acid], the inhibition at 22 µM came to 99%.

Staying with this test, now noted: Concentration 50 μM.
With `C[C@H](NC(=O)c1c(O)c2cc(Cl)cn2n(Cc2ccccn2)c1=O)C(=O)O` [Example 41, 2-(S)-[(6-Chloro-4-hydroxy-2-oxo-1-pyridin-2-ylmethyl-1,2-dihydro-pyrrolo[1,2-b]pyridazine-3-carbonyl)-amino]-propionic acid], 50 µM produced 91% inhibition.

Consider `O=C(O)CNC(=O)c1c(O)c2cc(Cl)cn2n(Cc2ccc(C(F)(F)F)cc2)c1=O` [Example 22, {[6-Chloro-4-hydroxy-2-oxo-1-(4-trifluoromethyl-benzyl)-1,2-dihydro-pyrrolo[1,2-b]pyridazine-3-carbonyl]-amino}-acetic acid], for which the inhibition at 50 µM is 98%.

Consider `CCCCn1c(=O)c(C(=O)NCC(=O)O)c(O)c2cccn21` [Example 17, [(1-Butyl-4-hydroxy-2-oxo-1,2-dihydro-pyrrolo[1,2-b]pyridazine-3-carbonyl)-amino]-acetic acid], for which the inhibition at 50 µM was found to be 97%. `O=C(O)CNC(=O)c1c(O)c2cc3ccccc3n2n(Cc2ccc(F)cc2)c1=O` [Example 18, {[4-(4-Fluoro-benzyl)-1-hydroxy-3-oxo-3,4-dihydro-4,4a-diaza-fluorene-2-carbonyl]-amino}-acetic acid]: the inhibition at 50 µM stood at 96%.

Staying with this test, now noted: Concentration 67 μM.
`C[C@H](NC(=O)c1c(O)c2cc(Cl)cn2n(Cc2cccnc2)c1=O)C(=O)O` [Example 39, 2-(S)-[(6-Chloro-4-hydroxy-2-oxo-1-pyridin-3-ylmethyl-1,2-dihydro-pyrrolo[1,2-b]pyridazine-3-carbonyl)-amino]-propionic acid] had an inhibition at 67 µM of 97%. As for `CC[C@H](NC(=O)c1c(O)c2cc(Cl)cn2n(Cc2ccc(Cl)cc2)c1=O)C(=O)O` [Example 30, 2-(S)-{[6-Chloro-1-(4-chloro-benzyl)-4-hydroxy-2-oxo-1,2-dihydro-pyrrolo[1,2-b]pyridazine-3-carbonyl]-amino}-butyric acid], the inhibition at 67 µM was 94%. For `O=C(O)CNC(=O)c1c(O)c2cc(Cl)cn2n(Cc2ccc(Cl)cc2)c1=O` [Example 28, {[6-Chloro-1-(4-chloro-benzyl)-4-hydroxy-2-oxo-1,2-dihydro-pyrrolo[1,2-b]pyridazine-3-carbonyl]-amino}-acetic acid], 67 µM produced 100% inhibition. With `O=C(O)CNC(=O)c1c(O)c2cc(Cl)cn2n(Cc2ccc(F)cc2)c1=O` [Example 26, {[6-Chloro-4-hydroxy-2-oxo-1-(4-fluoro-benzyl)-1,2-dihydro-pyrrolo[1,2-b]pyridazine-3-carbonyl]-amino}-acetic acid], 67 µM produced 98% inhibition. As for `C[C@H](NC(=O)c1c(O)c2cc(Cl)cn2n(Cc2ccc(F)cc2)c1=O)C(=O)O` [Example 27, 2-(S)-{[6-Chloro-1-(4-fluoro-benzyl)-4-hydroxy-2-oxo-1,2-dihydro-pyrrolo[1,2-b]pyridazine-3-carbonyl]-amino}-propionic acid], at 67 µM the inhibition was 95%. The compound `C[C@H](NC(=O)c1c(O)c2cc(Cl)cn2n(Cc2ccc(Cl)cc2)c1=O)C(=O)O` [Example 29, 2-(S)-{[6-Chloro-1-(4-chloro-benzyl)-4-hydroxy-2-oxo-1,2-dihydro-pyrrolo[1,2-b]pyridazine-3-carbonyl]-amino}-propionic acid] displayed an inhibition at 67 µM of 100%. Regarding `O=C(O)CNC(=O)c1c(O)c2cc(-c3ccccc3)cn2n(Cc2ccc(C(F)(F)F)cc2)c1=O` [Example 37, {[4-Hydroxy-2-oxo-6-phenyl-1-(4-trifluoromethyl-benzyl)-1,2-dihydro-pyrrolo[1,2-b]pyridazine-3-carbonyl]-amino}-acetic acid], at 67 µM the inhibition was 99%. In turn, `C[C@@H](NC(=O)c1c(O)c2cc(Cl)cn2n(Cc2ccc(-c3ccccc3)cc2)c1=O)C(=O)O` [Example 36, 2-(R)-{[6-Chloro-1-(4-phenyl-benzyl)-4-hydroxy-2-oxo-1,2-dihydro-pyrrolo[1,2-b]pyridazine-3-carbonyl]-amino}-propionic acid] yielded an inhibition at 67 µM of 98%. For `CC[C@H](NC(=O)c1c(O)c2cc(Cl)cn2n(Cc2ccc(OC)cc2)c1=O)C(=O)O` [Example 33, 2-(S)-{[6-Chloro-1-(4-methoxy-benzyl)-4-hydroxy-2-oxo-1,2-dihydro-pyrrolo[1,2-b]pyridazine-3-carbonyl]-amino}-butyric acid], the inhibition at 67 µM came to 88%.

As to `CC[C@H](NC(=O)c1c(O)c2cc(Cl)cn2n(Cc2ccc(F)cc2)c1=O)C(=O)O` [Example 34, 2-(S)-{[6-Chloro-1-(4-fluoro-benzyl)-4-hydroxy-2-oxo-1,2-dihydro-pyrrolo[1,2-b]pyridazine-3-carbonyl]-amino}-butyric acid], 67 µM produced 86% inhibition. `COc1ccc(Cn2c(=O)c(C(=O)N[C@@H](C)C(=O)O)c(O)c3cc(Cl)cn32)cc1` [Example 32, 2-(S)-{[6-Chloro-1-(4-methoxy-benzyl)-4-hydroxy-2-oxo-1,2-dihydro-pyrrolo[1,2-b]pyridazine-3-carbonyl]-amino}-propionic acid] gave an inhibition at 67 µM of 97%.

Staying with this test, now noted: Concentration 125 μM.
Compound `O=C(O)CNC(=O)c1c(O)c2cccn2[nH]c1=O` [Example 4, [(4-Hydroxy-2-oxo-1,2-dihydro-pyrrolo[1,2-b]pyridazine-3-carbonyl)-amino]-acetic acid] displayed an inhibition at 125 µM of 84%. `O=C(O)CNC(=O)c1c(O)c2cccn2n(Cc2ccccc2F)c1=O` [Example 5, {[1-(2-Fluoro-benzyl)-4-hydroxy-2-oxo-1,2-dihydro-pyrrolo[1,2-b]pyridazine-3-carbonyl]-amino}-acetic acid] registered an inhibition at 125 µM of 96%. `O=C(O)CNC(=O)c1c(O)c2cccn2n(Cc2ccccc2C(F)(F)F)c1=O` [Example 16, {[1-(2-Trifluoromethyl-benzyl)-4-hydroxy-2-oxo-1,2-dihydro-pyrrolo[1,2-b]pyridazine-3-carbonyl]-amino}-acetic acid] registered an inhibition at 125 µM of 98%. In turn, `O=C(O)CNC(=O)c1c(O)c2cccn2n(Cc2cccc(C(F)(F)F)c2)c1=O` [Example 13, {[1-(3-Trifluoromethyl-benzyl)-4-hydroxy-2-oxo-1,2-dihydro-pyrrolo[1,2-b]pyridazine-3-carbonyl]-amino}-acetic acid] came in with an inhibition at 125 µM of 97%.

The test is the same for the next values; noted with them: Concentration 200 μM.
For the compound `COc1ccc(Cn2c(=O)c(C(=O)NCC(=O)O)c(O)c3cccn32)cc1` [Example 12, {[1-(4-Methoxy-benzyl)-4-hydroxy-2-oxo-1,2-dihydro-pyrrolo[1,2-b]pyridazine-3-carbonyl]-amino}-acetic acid], the inhibition at 200 µM was 100%. On the same count and under the same terms, in the case of `O=C(O)CNC(=O)c1c(O)c2cccn2n(Cc2ccc(C(F)(F)F)cc2)c1=O` [Example 10, {[1-(4-Trifluoromethyl-benzyl)-4-hydroxy-2-oxo-1,2-dihydro-pyrrolo[1,2-b]pyridazine-3-carbonyl]-amino}-acetic acid] it was 100%. For the compound `CC[C@H](NC(=O)c1c(O)c2cccn2n(Cc2ccc(C(F)(F)F)cc2)c1=O)C(=O)O` [Example 25, 2-(S)-{[4-Hydroxy-2-oxo-1-(4-trifluoromethyl-benzyl)-1,2-dihydro-pyrrolo[1,2-b]pyridazine-3-carbonyl]-amino}-butyric acid], 200 µM produced 98% inhibition. Still for that read-out and setting: to `O=C(O)CNC(=O)c1c(O)c2cccn2n(Cc2ccccc2)c1=O` [Example 1, [(1-Benzyl-4-hydroxy-2-oxo-1,2-dihydro-pyrrolo[1,2-b]pyridazine-3-carbonyl)-amino]-acetic acid] belongs 100%. Compound `O=C(O)CNC(=O)c1c(O)c2cccn2n(Cc2ccc(F)cc2F)c1=O` [Example 6, {[1-(2,4-Difluoro-benzyl)-4-hydroxy-2-oxo-1,2-dihydro-pyrrolo[1,2-b]pyridazine-3-carbonyl]-amino}-acetic acid] displayed an inhibition at 200 µM of 100%. `O=C(O)CNC(=O)c1c(O)c2cccn2n(Cc2ccccc2Cl)c1=O` [Example 7, {[1-(2-Chloro-benzyl)-4-hydroxy-2-oxo-1,2-dihydro-pyrrolo[1,2-b]pyridazine-3-carbonyl]-amino}-acetic acid]: testing at 200 µM gave an inhibition of 100%. `O=C(O)CNC(=O)c1c(O)c2cccn2n(Cc2cccc(Cl)c2)c1=O` [Example 8, {[1-(3-Chloro-benzyl)-4-hydroxy-2-oxo-1,2-dihydro-pyrrolo[1,2-b]pyridazine-3-carbonyl]-amino}-acetic acid] displayed an inhibition at 200 µM of 100%. Still for that read-out and setting: in the case of `O=C(O)CNC(=O)c1c(O)c2cccn2n(Cc2ccc(F)cc2)c1=O` [Example 3, {[1-(4-Fluoro-benzyl)-4-hydroxy-2-oxo-1,2-dihydro-pyrrolo[1,2-b]pyridazine-3-carbonyl]-amino}-acetic acid] it was 100%.

Values taken from patent US8217043B2, “Compounds and methods for their use” (Fibrogen, Inc., priority 2008, dated 2012).
